Results on one molecule are retold here after US7091238B1, “Thienylhydrazon with digitalis-like properties (positive inotropic effects)” (University of Maryland, priority 1999, dated 2006).

Molecules are shown by their SMILES.

Data set [1] is described as follows: Plasma concentration kinetics. In kind it is in vivo. As for the experimental part: The plasma concentration of the drug reached a maximum at that time and afterwards tapered off to control levels within 2 hours.
In another data set the test system is single muscle fiber. The data set can be described thus: Twitch tension in single amphibian muscle fibers. In kind it is cell-based, frog, rana pipiens. The procedure: FIG. 15. Effect of 12.5 μM of compound 294 on force development in a single muscle fiber stimulated at different frequencies. The frequency of stimulation in Hz is indicated under each trace. Top panel, stimulating cycle done in Ringer without compound 294. Middle panel, stimulating cycle done 17 min after the fiber was bathed with compound 294. Bottom panel, second cycle of stimulation done 17 min after compound 294 was washed out with Ringer. Force calibration bars are 50 mg for twitches and 10 Hz simulations and 100 mg for 30, 60, and 90 Hz.
FIG. 16. Histogram showing the effect of 12.5 μM compound 294 and after washing out LASSBio-294 on fractional twitch tension (Tx/To). Tx represents the twitch tension obtained when the fiber was bathed with the solutions indicated above each column. The order of the columns are the order in which the simulating cycles were performed.
The tests in amphibians were performed in isolated single muscle cells freshly isolated from either the semitendinous or the tibialis anterior muscles of the frog, rana pipiens. The isolated muscle cells were left resting for at least half an hour in Ringer's solution. The fibers were then stimulated with single, low-voltage, electric shocks. If fibers gave brisk twitches and had no signs of membrane damage, they were used. Otherwise, they were discarded. Healthy fibers were transferred to the experimental chamber, which consisted of a 0.3 ml narrow channel where the solutions could be changed several times within five seconds. One tendon of the fiber was gripped with a small clamp and the other tendon was attached to a hook of an Ekhart;s type force transducer. The stimulating electrode consisted of platinum wires placed to each side of the fiber. The muscle fibers were stretched 1.3 times their slack length to reach approximately an average sarcomere length of 1.6 μm.
The fibers were stimulated with single electric pulses of 0.5 msec duration and variable voltage. The voltage was increased until the threshold for contraction was reached. This voltage was then increased by 50% and the experimental protocol started. To find out if LASSBio-294 has an effect on contractility, a stimulating protocol was used consisting of a series of single twitches elicited every 3 sec. followed by different frequencies of tetanic stimulation of 10 Hz, 30 Hz, and 60 Hz. The fibers rested for three minutes between each tetanic stimulation. When the whole series of stimulations were repeated, the fibers rested for 10 min. between each series of twitches and tetanic stimulations. Fatigue was induced by repetitive cycles of electrical stimulation. Each cycle consisted of a train of electric shocks delivered at 60 Hz for 0.8 sec followed by a single twitch after 2.2 sec and repeated every 4.15 sec. […]. […]

For data set [2], the system named is Ca^2+-ATPase extracted from heart muscle or gastrocnemius muscle. The data set can be described thus: Effect on Ca2+-ATPase. The data set is classed as biochemical. Particulars: enzyme from rat heart or gastrocnemius muscle. An excerpt: Determination of phosphodiesterase direct effect was also negative.
Data set [3] relates to Na^+/K^+-ATPase extracted from heart muscle or gastrocnemius muscle. The data set can be described thus: Effect on Na+/K+-ATPase. In kind it is biochemical. Particulars: enzyme from rat heart or gastrocnemius muscle.
A further data set relates to particulate PDE 3. The data set can be described thus: Direct inhibition of particulate PDE 3. In kind it is biochemical. Particulars: rabbit heart.
Data set [4] concerns contractile system of cardiac fibers. In words: Ca2+-induced tension in Triton X-100 treated left ventricular muscle bundles. The arrangement: species or system Wistar rats. As for the experimental part: FIG. 12. Muscle bundles were treated with 1% Triton X-100 for 60 min and exposed to solutions containing increasing concentrations of Ca^2+ in the presence or absence of LASSBio-294 (100 μM). Calibration: Vertical, 10 mm=20 mg; Horizontal, 10 mm=40 sec.
FIG. 13. Bundles of left ventricular muscles were treated with Triton X-100 and exposed to increasing concentrations of Ca^2+. Muscle tension expressed as % of the maximal response induced by 0.5 mM CaCl2 is graphed as a function of pCa.
b. Graphic representation of the tests in FIG. 7 showing the effect of LASSBio-294 on uptake of Ca^2+ by sarcoplasmic reticulum in isolated cardiac muscle with sarcolemma removed. FIG. 9 illustrates the effect of LASSBio-294 on tension in isolated cardiac muscle with sarcolemma removed was measured. Measurement of contraction induced by caffeine, as a function concentration of LASSBio-294 in bathing solution. FIG. 9 is a graphic representation of the effect of increasing concentrations of LASSBio-294 between 0 and 20 μM. […] FIG. 12 illustrates the effect of LASSBio-294 on sensitivity of cardiac fibers to calcium. Calcium levels can induce isometric twitch. […]
Bundles of left ventricular muscle (130 μm diameter and 1–2 mm in thickness) from Wistar rats were dissected out and mounted for measurement of isometric tension. […] Comparison of caffeine alone to caffeine in the presence of LASSBio-294 was measured.

Take `O=C(NN=Cc1cccs1)c1ccc2c(c1)OCO2` [LASSBio-294, 3,4-methylenedioxybenzoyl-2-thienylhydrazone]: in data set [1], the “retention time (RT); time of maximum plasma concentration” value was determined as 14.59 min and the “time for plasma concentration to taper off to control levels” value was ≤ 2 h. The “increase of twitch tension vs control” value with single muscle fiber (12.5 μM, second stimulation cycle, 17 min in compound) is ~50%. In addition, the “increase of twitch peak tension vs control” value in the data set with single muscle fiber (12.5 μM, three minutes after bathing) is “approximately 25%”. In the data set on single muscle fiber (17 min in Ringer after washing away 12.5 μM compound), the “twitch tension potentiation vs control after wash out” value is given as “approximately 77%”. In addition, in the data set with single muscle fiber (fiber exposed again to 12.5 μM after wash out), the “twitch force on re-exposure” value was “decrease in twitch force”. Moreover, the “effect on Ca^2+-ATPase” value in data set [2] is listed as “did not affect”. Also, in data set [3], the “effect on Na^+/K^+-ATPase” value was “did not affect”. In the data set with particulate PDE 3, the “direct inhibition of particulate PDE 3” value was “did not inhibit directly”. Further, in data set [4], the “sensitivity of muscle fibers to calcium” value is given as “does not change”. The “isometric twitch response at each level of pCa” value in data set [4] (Triton X-100 treated fibers, 100 μM vs control) is given as “greater in the presence of LASSBio-294 than in control”.
